The values below are quoted from earlier work in the PKSmart pharmacokinetics tables (Seal et al. 2025).

A word on the MRT: it is the average time that molecules of a dose stay in the body. Usually Vd stands for the apparent volume that relates the amount in the body to the concentration in plasma or blood. Usually clearance stands for a measure of how efficiently the substance is removed, as volume per time. A word on the half-life: it is the time needed for the level to fall by half in the phase considered. The fraction unbound is the share of the substance not bound to proteins or other matrix.

*1 amine or outer side, *2 acyl side, *3 side chain or, on linkers, in order; H or OH if unused. Where a SMILES comes first, the peptide text is derived from it. Bridges are numbered along the chain shown (N, C = ends). [ ]: non-standard residue; d: D form. The star is where a group is joined. ξ: configuration not given here. pTerphenylCO(4''-OnC5H11) = CCCCCOc1ccc(-c2ccc(-c3ccc(C(=O)*)cc3)cc2)cc1; ξOrn(4R-OH,5R-OH) = O=C(C(C[C@@H](O)[C@@H](O)N[*:3])N[*:1])[*:2]; ξhTyr(3S-OH,4S-OH) = NC(C(=O)O)[C@H](O)[C@@H](O)c1ccc(O)cc1; X4 = C[C@H]1CN([*:1])C(C(=O)[*:2])[C@H]1O; ξPro(4R-OH) = O=C(O)C1C[C@@H](O)CN1; ξThr(3R) = C[C@@H](O)C(N)C(=O)O

The nature of this data set: Lombardo, Berellini, Obach 2018, Drug Metab Dispos 46:1466, doi 10.1124/dmd.118.082966. Conditions: human; for MRT / Vd / clearance / half-life: in vivo, iv; for fraction unbound: plasma.

As to `CCCCC1=NC2(CCCC2)C(=O)N1Cc1ccc(-c2ccccc2-c2nnn[nH]2)cc1`, the MRT was 6.8 h, the Vd was 0.94 L/kg, the clearance is 2.3 mL/min/kg and the half-life is 14 h. The fraction unbound is 0.1.
Take `CCCCCOc1ccc(-c2ccc(-c3ccc(C(=O)NC4C[C@@H](O)[C@@H](O)NC(=O)C5[C@@H](O)[C@@H](C)CN5C(=O)C([C@@H](C)O)NC(=O)C([C@H](O)[C@@H](O)c5ccc(O)cc5)NC(=O)C5C[C@@H](O)CN5C(=O)C([C@@H](C)O)NC4=O)cc3)cc2)cc1` (stereo partly drawn) ({pTerphenylCO(4''-OnC5H11)}-[ξOrn(4R-OH,5R-OH)][ξThr(3R)][ξPro(4R-OH)][ξhTyr(3S-OH,4S-OH)][ξThr(3R)][X4]; lactam 1-C): the MRT was 45 h, the Vd is 0.57 L/kg, the clearance is 0.21 mL/min/kg and the half-life is 40 h.
On to `Nc1nc(Cl)nc2c1ncn2[C@H]1C[C@H](O)[C@@H](CO)O1`, for which the MRT was 9.2 h, the Vd is 7.7 L/kg, the clearance was 14 mL/min/kg and the half-life was 16 h. Further, the fraction unbound was 0.79.
For the molecule `Nc1cc(N2CCCCC2)nc(N)[n+]1[O-]`, the MRT is 1.3 h, the distribution volume (Vd) was 0.9 L/kg, the clearance was 11.5 mL/min/kg and the half-life is 1.5 h.
`CNC1=Nc2ccc(Cl)cc2C(c2ccccc2)=[N+](O)C1`: the mean residence time MRT was 11 h, the Vd was 0.25 L/kg and the half-life is 8.3 h.
As to `CC(=O)OC1=C2C(C)[C@@H](OC(=O)C(O)C(NC(=O)OC(C)(C)C)c3ccccc3)C[C@@](O)([C@@H](OC(=O)c3ccccc3)[C@@H]3[C@]4(OC(C)=O)CO[C@@H]4C[C@@H]4C[C@@]43C1=O)C2(C)C` (some centres undefined), the MRT is 26.1 h, the Vd was 17 L/kg, the clearance is 10.8 mL/min/kg and the half-life is 33.9 h.
Turning to `O=C(O)CCCCN(CCc1ccccc1OCc1ccc(CCc2ccccc2)cc1)Cc1ccc(C(=O)O)cc1`, the MRT was 0.44 h, the Vd is 0.24 L/kg, the clearance was 9 mL/min/kg and the half-life is 0.25 h.
On to `O=C(O)CSc1nnc(Br)n1-c1ccc(C2CC2)c2ccccc12`, for which the mean residence time MRT is 3.33 h, the Vd is 0.29 L/kg, the clearance was 1.43 mL/min/kg and the half-life was 5 h. For the same molecule, the fraction unbound was 0.02.
Take `COc1ccccc1Oc1c(NS(=O)(=O)c2ccc(C(C)(C)C)cc2)nc(-c2ncccn2)nc1OCCO`: the MRT is 2.3 h, the Vd is 0.29 L/kg, the clearance is 2.1 mL/min/kg and the half-life was 4.1 h. Further, the fraction unbound was 0.037.
For `CC[C@H](CC[C@@H](C)[C@H]1CC[C@H]2[C@@H]3CC=C4C[C@@H](O)CC[C@]4(C)[C@H]3CC[C@]12C)C(C)C`, the mean residence time (MRT) is 250 h, the Vd is 0.3 L/kg, the clearance is 0.02 mL/min/kg and the half-life is 372 h.
In the case of `OC[C@@H]1O[C@@H](n2cnc3c2N=CNC[C@H]3O)C[C@H]1O`, the MRT was 6 h, the Vd was 0.59 L/kg, the clearance is 1.63 mL/min/kg and the half-life is 5.3 h.
`O=C(c1ccc(OCCN2CCCCC2)cc1)c1c(-c2ccc(O)cc2)sc2cc(O)ccc12`: the MRT is 11.6 h, the Vd is 7.5 L/kg, the half-life is 12.1 h and the fraction unbound is 0.05.
With `CC[C@H](c1ccccc1)c1c(O)c2ccccc2oc1=O`, the MRT is 182 h, the Vd was 0.2 L/kg, the clearance was 0.02 mL/min/kg and the half-life was 126 h. Further, the free fraction (fraction unbound) was 0.57.
For the molecule `O=S(=O)(O)CCS`, the MRT is 0.52 h, the Vd is 0.65 L/kg, the clearance is 20.5 mL/min/kg and the half-life is 0.36 h.
Take `CC(C)(C)OC(=O)NC1CCCCC/C=C\[C@@H]2C[C@@]2(C(=O)NS(=O)(=O)C2CC2)NC(=O)C2C[C@@H](OC(=O)N3Cc4cccc(F)c4C3)CN2C1=O` (some centres undefined): the MRT is 0.32 h, the volume of distribution (Vd) is 0.22 L/kg, the clearance is 11.5 mL/min/kg and the half-life is 1.81 h. Besides, the fraction unbound was 0.02.
In the case of `O=C(N[C@H](CO)[C@H](O)c1ccc([N+](=O)[O-])cc1)C(Cl)Cl`, the MRT was 6.5 h, the volume of distribution (Vd) is 0.94 L/kg, the clearance was 2.4 mL/min/kg and the half-life is 4.6 h.
Turning to `C[C@H](CCc1ccccc1)NC[C@H](O)c1ccc(O)c(C(N)=O)c1`, the MRT was 2.8 h, the clearance is 29 mL/min/kg and the half-life is 3.3 h.
Turning to `CCOc1cc(Cc2cnc(N)nc2N)cc(OCC)c1-n1cccc1`, the distribution volume (Vd) was 2.5 L/kg, the clearance was 3.5 mL/min/kg, the half-life is 9.4 h and the fraction unbound is 0.12.
As for `O=C(O)c1cc(N=Nc2ccc(O)c(C(=O)O)c2)ccc1O`, the MRT was 0.97 h, the Vd was 0.07 L/kg, the clearance was 1.2 mL/min/kg and the half-life is 0.9 h. Besides, the fraction unbound was 0.01.
As to `COC(=O)C(c1ccccc1)[C@H]1CCCCN1` (some centres undefined), the mean residence time (MRT) was 6.62 h, the Vd was 2.65 L/kg, the clearance was 6.67 mL/min/kg and the half-life was 8 h. The unbound share (fraction unbound) was 0.87.
With `CCCCNc1cc(C(=O)O)cc(S(N)(=O)=O)c1Oc1ccccc1`, the MRT is 1.1 h, the Vd was 0.16 L/kg, the clearance is 2.5 mL/min/kg and the half-life was 1.2 h.
With `C[C@H]1CCc2c(N3CCC(O)CC3)c(F)cc3c(=O)c(C(=O)O)cn1c23`, the MRT was 7.87 h, the Vd was 0.25 L/kg, the clearance was 0.54 mL/min/kg and the half-life is 6.04 h.
As for `CCCc1c(O)n2c(N(C)C)nc3ccc(C)cc3[n+]2c1O`, the MRT is 14 h, the Vd was 0.12 L/kg, the clearance is 0.14 mL/min/kg and the half-life was 17 h. The fraction unbound was 0.004.
On to `Cc1ccc(O)c([C@H](CCN(C(C)C)C(C)C)c2ccccc2)c1`, for which the MRT is 3 h, the Vd is 1.5 L/kg, the clearance is 8.4 mL/min/kg and the half-life is 2.4 h.
Consider `CCN1CC(CCN2CCOCC2)C(c2ccccc2)(c2ccccc2)C1=O` (centres undefined), for which the MRT was 3.7 h, the Vd was 1.2 L/kg, the clearance is 5.3 mL/min/kg and the half-life was 4.1 h.
Take `C=CC(=O)N1CCCC(n2nc(-c3ccc(Oc4ccccc4)cc3)c3c(N)ncnc32)C1` (centres undefined): the fraction unbound was 0.03.
Consider `Cc1cc2c(OCC(O)CNC(C)C)cccc2[nH]1` (centres undefined), for which the MRT is 6.21 h, the Vd was 2.17 L/kg, the clearance is 5.83 mL/min/kg and the half-life was 4.61 h. The fraction unbound is 0.51.
Take `Cc1nc(=O)c(C#N)c(NCc2cccnc2)[nH]1`: the MRT was 1.1 h, the Vd was 0.39 L/kg, the clearance was 5.8 mL/min/kg and the half-life is 0.95 h. Besides, the fraction unbound was 0.05.
For `CC(NC(=O)C(Cc1c[nH]c2ccccc12)NC(=O)C(N)Cc1cnc[nH]1)C(=O)NC(Cc1c[nH]c2ccccc12)C(=O)NC(Cc1ccccc1)C(=O)NC(CCCCN)C(N)=O` (centres undefined) (H-HWAWFK-NH2; configuration not given here), the MRT is 2.45 h, the Vd is 0.42 L/kg, the clearance was 3.1 mL/min/kg and the half-life was 2.46 h.
As for `CCCCN1CCCC1C(=O)Nc1c(C)cc(C)cc1C` (centres undefined), the MRT is 1.51 h, the Vd is 1.73 L/kg, the clearance is 19.2 mL/min/kg and the half-life was 1.58 h.
On to `CN(C)Cc1c(C(=O)NCCOc2ccc(C(O)=NO)cc2)oc2ccccc12`, for which the MRT was 2.65 h, the Vd was 2.6 L/kg, the clearance was 16.3 mL/min/kg and the half-life was 5.9 h.
Consider `CC/C=C\C/C=C\C/C=C\C/C=C\C/C=C\C/C=C\CCC(=O)OC(C(=O)O[C@H]1C[C@@]2(O)[C@@H](OC(=O)c3ccccc3)[C@@H]3[C@]4(OC(C)=O)CO[C@@H]4C[C@H](O)[C@@]3(C)C(=O)C(OC(C)=O)=C(C1C)C2(C)C)[C@@H](NC(=O)c1ccccc1)c1ccccc1` (some centres undefined), for which the MRT was 45 h, the clearance is 0.025 mL/min/kg, the half-life was 60 h and the fraction unbound is 0.0038.
